Where a name gives a salt, the structure may show the parent alone. Read-outs that look alike come from different tables or passages of the source.
Experiments:
[1] = tested on: hippocampal CA1 pyramidal cell layer; assay: Stroke model in rats (four-vessel occlusion), hippocampal CA1 damage; conditions: for Damage Score, Hippocampus: scale 0-3, mean ± SE
Source text: (§1) Strokes were produced in rats by occluding the four arteries that supply blood to the brain according to the following procedure. Male Wistar rats (250-280 g; Hilltop Laboratories, Scottsdale, Pa.) were anesthetized with metofane and placed into a stereotaxic instrument. A longitudinal incisio was made on the dorsal surface of the neck. The neck muscles were reflected to expose the dorsal surface of the spinal column. The two vertebral arteries were exposed where they pass through the first cervica vertebra. Both arteries were permanently occluded by the application of electrocautery. After coagulation of the vertebral arteries, the rat was removed from the stereotaxic instrument and the surgical wound was sutured. Two longitudinal incisions were then made on the ventral surface of the neck. The two common carotid arteries were exposed and dissected free from surrounding nerves and connective tissue. Reversible atraumatic clamps, fabricated mainly from silicon rubber tubing, were placed around each carotid artery in a manner such that the vessels were not traumatize or occluded. The clamps were externalized through the ventral neck incision. A suture was also placed through the neck dorsal to the carotids, esophagus and trachea, and tied loosely behind the neck. This suture is tied tightly at the time ischemia is induced in order to restrict collateral circulation reaching the brain through the dorsal muscles of the neck. The surgical wounds were then closed. After the surgery, the rats were allowed to recover for 24 hours (free access to water, but no food during this period).
(§2) On the day of testing, test compounds were administered at various times before stroke induction. Strokes (cerebral ischemia) were induced by tightening the clamps around the carotids, thereby stopping blood flow in the carotids. Rats in which strokes were successfully produced lost the righting reflex and became unresponsive to stimuli. Collateral circulatio through the dorsal neck muscles was then restricted by tightening the previously implanted suture. […] After 30 minutes of ischemia, the carotid clamps wer released, the neck suture was loosened, and blood flow to the brain was restored. Following the period of ischemia, the rats were allowed free access to food and water. Rats were again treated with test compounds at various times after the stroke. On the third day after the stroke the animals were sacrificed and their brains were removed, frozen and sectioned through the striatum and hippocampus. Sections were mounted on glass slides and stained with hematoxylin and eosin.
(§3) Two of the areas of the brain that are most susceptible to ischemia induce damage, both in rats and humans, are the CA1 pyramidal cell layer of the hippocampus and the striatal cell layer of the striatum. In animals that remain unresponsive for the 30 minute period of ischemia, the CA1 pyramidal cell layer and the striatal cell layer are completely destroyed. These layers of cells were examined microscopically in histological sections prepared from the hippocampus and striatum. Brain damage was rated according to the following scale:
(§4) 0=no damage, completely intact cell layer
(§5) 1=mild damage, onethird of cell layer dead
(§6) 2=moderate damage, twothirds of cell layer dead
(§7) 3=severe damage, complete destruction of cell layer
(§8) Damage in 10-12 sections from each brain was assessed in order to obtain a accurate estimate of damage. An average damage score was calculated for each treatment group. Scores from treated groups were compared statistically with scores from control groups which received only the vehicle used to suspend the compounds. The level of significance was determined using the Mann WhitneyU-test.

[2] = tested on: striatal cell layer of the striatum; assay: Stroke model in rats (four-vessel occlusion), striatal damage; assay type: in vivo, male Wistar rats; conditions: scale 0-3, mean ± SE
Source text: as §1, §2, §3, §4, §5, §6, §7, §8

[3] = tested on: adjuvant-induced arthritis (uninjected hind paw); assay: Developing Adjuvant-Induced Arthritis Test in Rats; assay type: in vivo, male Lewis-Wistar rats; conditions: po, 720 h, AUC days 16-30; for inhibition in vivo at 50 mg/kg: 50 mg/kg rat weight × 29, p.o. once daily
[4] = tested on: ischemia-induced cell damage caused by middle cerebral artery occlusion; assay: Middle Cerebral Artery Occlusion Stroke Model; assay type: in vivo, male spontaneously hypertensive rats; conditions: for toxicity of higher doses (footnote ++): doses above 10/5 mg/kg i.v.
Source text: Strokes were also produced in rats by occluding the middle cerebral artery according to the following procedure. Male spontaneously hypertensive rats were housed in groups of three to four per cage and allowed free access to food and water. The animals were anesthetized with a mixture of 2.5% halothane and air. The anesthetized rats then underwent the following surgical procedure.
A femoral artery of each rat was cannulated to monitor mean arterial pressure and a jugular cannula was inserted in order to provide a means for administering test compounds intravenously. […] The ventral neck area and the area behind each animal's right eye were shaved and washed with antiseptic solution. The right common carotid artery was dissected free of connective tissue through a midline cervical incision and the vessel permanently occluded with a silk ligature. Next, a 1 cm incision perpendicular to, and bisecting a line between the lateral canthus of the right eye and the external auditory canal, was made to expose the temporalis muscle which was retracted and partially excised. Using a dissecting microscope, the right middle cerebral artery was exposed through a 2 mm burr hole drilled 2-3 mm rostral to the fusion of the zygomatic arch with a squamosal bone. Drilling was done under a continuous drip of a 0.9% saline solution to prevent heat injury of the underlying cortex. The dura was cut and retracted to expose the middle cerebral artery.
This artery was occluded in two ways. The first method of occlusion involved permanent cauterization of the artery so that blood flow through the artery was completely eliminated. The second method of occulsion was only temporary (lasting two hours) and involved clamping the artery with microaneurism clips. Test compounds were administered at various times before, during and after occlusion. Each animal's body temperature was maintained at 37° C. during testing using a rectal thermometer connected to a heating pad.
Twenty-four hours after tandem middle cerbral carotid artery occlusion, the test animals were sacrificed and their brains removed and frozen over dry ice. Coronal sections 20 microns thick were cut at half millimeter intervals in a cryostat at -20° C. and dried on a hot plate at 60° C. The sections were then stained with cresyl violet. […] A total infarct volume was then calculated using a computer program that summed all sectional areas measured multiplied by the interval thickness. The lower the infarcted volume obtained, the lower the amount of cell damage caused by the stroke. The level of significance was obtained using Student's "t-test".

[5] = 100 mg/kg orally, 2% acacia, time c (30 min pre, 4 h and 24 h postischemia), control 2.5 ± 0.3
[6] = 100 mg/kg orally, 2% acacia, time c (30 min pre, 4 h and 24 h postischemia), control 1.4 ± 0.3
[7] = 25 mg/kg rat weight × 29, p.o. once daily, read-out: % Inhibition of Uninjected Paw Volume Inflammation, Days 16-30
[8] = read-out: % Inhibition of Uninjected Paw Volume Inflammation, Days 16-30
[9] = 25 mg/kg orally, water, time a (15 min pre, 4 h and 24 h postischemia), control 2.5 ± 0.3
[10] = 100 mg/kg orally, 2% acacia, time c (30 min pre, 4 h and 24 h postischemia), control 2.7 ± 0.2
[11] = 100 mg/kg orally, water, time a (15 min pre, 4 h and 24 h postischemia), control 2.7 ± 0.2
[12] = Rattus norvegicus, read-out: % Inhibition of Uninjected Paw Volume Inflammation, Days 16-30, 25 mg/kg rat weight × 29, p.o. once daily
[13] = 50 mg/kg orally, 2% acacia, time c (30 min pre, 4 h and 24 h postischemia), control 2.73 ± 0.22
[14] = 50 mg/kg orally, 2% acacia, time c (30 min pre, 4 h and 24 h postischemia), control 2.71 ± 0.22
[15] = 100 mg/kg orally, 2% acacia, time a (15 min pre, 4 h and 24 h postischemia), control 2.9 ± 0.1
[16] = 100 mg/kg orally, 2% acacia, time a (15 min pre, 4 h and 24 h postischemia), control 2.4 ± 0.4

With `CC(C)(C)c1cc(CN2CCCC2)cc(C(C)(C)C)c1O.Cl` [4-(1-pyrrolidinomethyl)-2,6-bis(1,1-dimethylethyl)phenol hydrochloride] the “Damage Score, Hippocampus” value [1, 5] was 1.2 ± 0.5 and the “Damage Score, Striatum” value [2, 6] was 1.5 ± 0.4.

For `CC(C)(C)c1cc(CN2CCOCC2)cc(C(C)(C)C)c1O` [4-(4-morpholinylmethyl)-2,6-bis(1,1-dimethylethyl)phenol], the inhibition in vivo at 25 mg/kg [3, 7] was 40.6% and the inhibition in vivo at 50 mg/kg [3, 8] was 71.1%.

With `CCNC(C)c1cc(C(C)(C)C)c(O)c(C(C)(C)C)c1.Cl` (stereo not drawn) [4-[1-(ethylamino)ethyl]-2,6-bis(1,1-dimethylethyl)phenol hydrochloride] the “toxicity of higher doses (footnote ++)” value ([4]; temporary occlusion, 10% DMSO in saline) was “higher doses were toxic in this model”, the “Infarct Volume” value ([4]; temporary occlusion, 10/5 mg/kg i.v. (per hour), 10% DMSO in saline, time d, control 106 ± 15) was 92 ± 10 (mm)^3 and the “toxicity in stroke model (footnote ****)” value ([1]; 50 mg/kg orally, 2% acacia, time c, data on only 7 rats) was “data obtained on only 7 rats because of toxicity problems”. For the same compound, the “Damage Score, Hippocampus” value ([1]; 50 mg/kg orally, 2% acacia, time c (30 min pre, 4 h and 24 h postischemia), control 2.6 ± 0.3, only 7 rats because of toxicity) was 0.9 ± 0.4 and the “Damage Score, Striatum” value ([2]; 50 mg/kg orally, 2% acacia, time c (30 min pre, 4 h and 24 h postischemia), control 1.9 ± 0.4, only 7 rats because of toxicity) was 1.5 ± 0.5.

With `CN(C)CCc1cc(C(C)(C)C)c(O)c(C(C)(C)C)c1.Cl` [4-[2-(dimethylamino)ethyl]-2,6-bis(1,1-dimethylethyl)phenol hydrochloride] the “toxicity of higher doses (footnote ++)” value ([4]; permanent occlusion, saline) was “higher doses were toxic in this model”, the “Infarct Volume” value ([4]; permanent occlusion, 10/5 mg/kg i.v. (per hour), saline, time c, control 154 ± 11) was 161 ± 17 (mm)^3 and the “Infarct Volume” value ([4]; temporary occlusion, 20/5 mg/kg i.v. (per hour), saline, time d, control 84.7 ± 6.4) was 77.6 ± 5.5 (mm)^3. The “Damage Score, Hippocampus” value [1, 9] was 1.6 ± 0.3, the “Damage Score, Hippocampus” value ([1]; 50 mg/kg orally, water, time a (15 min pre, 4 h and 24 h postischemia), control 3.0 ± 0.0) was 0.8 ± 0.4 and the “Damage Score, Hippocampus” value [1, 10] was 0.2 ± 0.2. For the same compound, the “Damage Score, Hippocampus” value [1, 11] was 0.2 ± 0.2, the “Damage Score, Striatum” value [2, 9] was 0.9 ± 0.3 and the “Damage Score, Striatum” value ([2]; 50 mg/kg orally, water, time a (15 min pre, 4 h and 24 h postischemia), control 2.8 ± 0.2) was 0.3 ± 0.2. For the same compound, the “Damage Score, Striatum” value [2, 10] was 0.0 ± 0.0 and the “Damage Score, Striatum” value [2, 11] was 0.1 ± 0.0.

For `CN(C)CCc1cc(C(C)(C)C)c(O)c(C(C)(C)C)c1` [4-[2-(dimethylamino)ethyl]-2,6-bis(1,1-dimethylethyl)phenol], the “Damage Score, Hippocampus” value [1, 10] was 0.0 ± 0.0 and the “Damage Score, Striatum” value [2, 10] was 0.0 ± 0.0.

With `CNCCc1cc(C(C)(C)C)c(O)c(C(C)(C)C)c1.Cl` [4-[2-(methylamino)ethyl]-2,6-bis(1,1-dimethylethyl)phenol hydrochloride] the “hypothermia (footnote +++)” value ([4]; dose of 50/10 i.v., permanent occlusion) was “severe hypothermia”, the “Infarct Volume” value ([4]; permanent occlusion, 30/5 mg/kg i.v. (per hour), saline, time c, control 129 ± 14) was 130 ± 16 (mm)^3 and the inhibition in vivo at 25 mg/kg [3, 12] was 72.2%.

In the case of `CNCCc1ccc(O)c(C(C)(C)C)c1.Cl` [4-[2-(methylamino)ethyl]-2-(1,1-dimethylethyl)phenol hydrochloride], the inhibition in vivo at 25 mg/kg [3, 12] is reported as 76.6%, the “Damage Score, Hippocampus” value [1, 13] is reported as 2.78 ± 0.12 and the “Damage Score, Striatum” value [2, 14] is reported as 1.62 ± 0.35.

In the case of `CCN(C)Cc1cc(C(C)(C)C)c(O)c(C(C)(C)C)c1` [4-[(N-ethyl-N-methylamino)methyl]-2,6-bis(1,1-dimethylethyl)phenol methanesulfonate], the inhibition in vivo at 25 mg/kg [3, 7] is reported as 26%, the “Damage Score, Hippocampus” value [1, 15] is reported as 1.1 ± 0.5 and the “Damage Score, Striatum” value [2, 16] is reported as 1.1 ± 0.4.

`CCN(CC)Cc1cc(C(C)(C)C)c(O)c(C(C)(C)C)c1.Cl` [4-[(diethylamino)methyl]-2,6-bis(1,1-dimethylethyl)phenol hydrochloride] was tested, and the “Damage Score, Hippocampus” value [1, 5] was 2.0 ± 0.5 and the “Damage Score, Striatum” value [2, 6] was 1.7 ± 0.6.

With `CN(C)Cc1cc(C(C)(C)C)c(O)c(C(C)(C)C)c1` [4-[(dimethylamino)methyl]-2,6-bis(1,1-dimethylethyl)phenol methanesulfonate] the “Infarct Volume” value ([4]; temporary occlusion, 30/5 mg/kg i.v. (per hour), saline, time d (15 min before clamp removal, then 24 h), control 97 ± 10) was 69 ± 9 (mm)^3, the “Damage Score, Hippocampus” value [1, 15] was 0.9 ± 0.3 and the “Damage Score, Striatum” value [2, 16] was 0.8 ± 0.3.

With `CCNCc1cc(C(C)(C)C)c(O)c(C(C)(C)C)c1` [4-[(ethylamino)methyl]-2,6-bis(1,1-dimethylethyl)phenol nitrate] the “Damage Score, Hippocampus” value ([1]; 50 mg/kg orally, 2% acacia, time c (30 min pre, 4 h and 24 h postischemia), control 2.90 ± 0.04) was 1.81 ± 0.36 and the “Damage Score, Striatum” value ([2]; 50 mg/kg orally, 2% acacia, time c (30 min pre, 4 h and 24 h postischemia), control 2.30 ± 0.32) was 1.26 ± 0.40.

`CC(C)NCc1cc(C(C)(C)C)c(O)c(C(C)(C)C)c1` [4-[(isopropylamino)methyl]-2,6-bis(1,1-dimethylethyl)-phenol hydrochloride] was tested, and the inhibition in vivo at 25 mg/kg [3, 7] was 4.9%.

`CCCNCc1cc(C(C)(C)C)c(O)c(C(C)(C)C)c1.Cl` [4-[(n-propylamino)methyl]-2,6-bis(1,1-dimethylethyl)phenol hydrochloride] was tested, and the “Damage Score, Hippocampus” value ([1]; 50 mg/kg orally, distilled water, time c (30 min pre, 4 h and 24 h postischemia), control 2.96 ± 0.03) was 1.48 ± 0.34 and the “Damage Score, Striatum” value ([2]; 50 mg/kg orally, distilled water, time c (30 min pre, 4 h and 24 h postischemia), control 2.53 ± 0.22) was 1.05 ± 0.33.

In the case of `CC(C)(C)NCc1cc(C(C)(C)C)c(O)c(C(C)(C)C)c1.Cl` [4-{[(1,1-dimethylethyl)amino]methyl}-2,6-bis(1,1dimethylethyl)phenol hydrochloride], the inhibition in vivo at 25 mg/kg [3, 7] is reported as 3.9%, the “Damage Score, Hippocampus” value [1, 13] is reported as 1.72 ± 0.43 and the “Damage Score, Striatum” value [2, 14] is reported as 0.75 ± 0.35.

In the case of `CN(Cc1cc(C(C)(C)C)c(O)c(C(C)(C)C)c1)Cc1cc(C(C)(C)C)c(O)c(C(C)(C)C)c1.Cl` [4-{[N-methyl-N-(4-hydroxy-3,5-bis(1,1-dimethylethyl)benzyl)amino]methyl}-2,6-bis(1,1-dimethylethyl)phenol hydrochloride], the “Damage Score, Hippocampus” value [1, 10] is reported as 2.9 ± 0.1 and the “Damage Score, Striatum” value [2, 10] is reported as 1.8 ± 0.4.

In the case of `CN(Cc1cc(C(C)(C)C)c(O)c(C(C)(C)C)c1)Cc1cc(C(C)(C)C)c(O)c(C(C)(C)C)c1` [4-{[N-methyl-N-(4-hydroxy-3,5-bis(1,1-dimethylethyl)benzyl)amino]methyl}-2,6-bis(1,1-dimethylethyl)phenol], the inhibition in vivo at 50 mg/kg [3, 8] is reported as 77%, the “Damage Score, Hippocampus” value [1, 10] is reported as 2.9 ± 0.2 and the “Damage Score, Striatum” value [2, 10] is reported as 2.4 ± 0.4.

`CN(C)C(=O)c1cc(C(C)(C)C)c(O)c(C(C)(C)C)c1` [N,N-dimethyl-3,5-bis(1,1-dimethylethyl)-4-hydroxybenzamide] was tested, and the inhibition in vivo at 50 mg/kg [3, 8] was 64.4%.

`CC(C)(C)c1cc(C(=O)Nc2ccccc2Cl)cc(C(C)(C)C)c1O` [N-2-chlorophenyl-3,5-bis(1,1-dimethylethyl)-4-hydroxy-benzamide] showed an inhibition in vivo at 50 mg/kg [3, 8] of 8.7%.
